Results reported in ChEMBL document CHEMBL1687718, “Selection and characterization of hepatitis C virus replicons dually resistant to the polymerase and protease inhibitors HCV-796 and boceprevir (SCH 503034)” (Antimicrob Agents Chemother, 2009).

What was measured:
Hepatitis C virus [1] = assay: Antiviral activity against Hepatitis C virus genotype 1b Con1 infected in human HuH7 cells assessed as GAPDH RNA or 18S rRNA level after 3 days by qRT-PCR analysis; type: functional, organism-based, Hepacivirus hominis; conditions: Con1, Huh-7, 72 h
Hepatitis C virus [2] = assay: Antiviral activity against Hepatitis C virus genotype 1b Con1 infected in human HuH7 cells assessed as GAPDH RNA or 18S rRNA level after 3 days selected with 40 nM HCV-796 and 800 nM boceprevir by qRT-PCR analysis relative to control; type: functional, organism-based, Hepacivirus hominis, Huh-7
Hepatitis C virus [3] = assay: Antiviral activity against Hepatitis C virus genotype 1b Con1 infected in human HuH7 cells assessed as GAPDH RNA or 18S rRNA level after 3 days selected with 40 nM HCV-796 and 800 nM boceprevir by qRT-PCR analysis; type: functional, organism-based, Hepacivirus hominis; conditions: Con1, Huh-7, 72 h
Hepatitis C virus [4] = assay: Antiviral activity against Hepatitis C virus genotype 1b Con1 harboring C316Y and C445F mutations mutant infected in human HuH7.5 cells after 72 hrs by gaussia luciferase reporter assay; type: functional, organism-based, Hepacivirus hominis; conditions: Con1, Huh-7, 72 h
Hepatitis C virus [5] = assay: Antiviral activity against Hepatitis C virus genotype 1b Con1 harboring NS3 K583T mutant infected in human HuH7.5 cells after 72 hrs by gaussia luciferase reporter assay relative to control; type: functional, Hepacivirus hominis, Huh-7
Hepatitis C virus [6] = assay: Antiviral activity against Hepatitis C virus genotype 1b Con1 harboring V170A and C316Y mutations mutant infected in human HuH7.5 cells after 72 hrs by gaussia luciferase reporter assay relative to control; type: functional, Hepacivirus hominis, Huh-7
Hepatitis C virus [7] = assay: Antiviral activity against Hepatitis C virus genotype 1b Con1 harboring NS5B C445F mutant infected in human HuH7.5 cells after 72 hrs by gaussia luciferase reporter assay; type: functional, organism-based, Hepacivirus hominis; conditions: Con1, Huh-7, 72 h
Hepatitis C virus [8] = assay: Antiviral activity against Hepatitis C virus genotype 1b Con1 harboring NS5B I424V mutant infected in human HuH7.5 cells after 72 hrs by gaussia luciferase reporter assay; type: functional, organism-based, Hepacivirus hominis; conditions: Con1, Huh-7, 72 h
Hepatitis C virus [9] = assay: Antiviral activity against Hepatitis C virus genotype 1b Con1 infected in human HuH7 cells assessed as GAPDH RNA or 18S rRNA level after 3 days selected with […] and 400 nM boceprevir by qRT-PCR analysis relative to control; type: functional, Hepacivirus hominis, Huh-7
Hepatitis C virus [10] = assay: Antiviral activity against Hepatitis C virus genotype 1b Con1 harboring NS5B C316Y mutant infected in human HuH7.5 cells after 72 hrs by gaussia luciferase reporter assay relative to control; type: functional, Hepacivirus hominis, Huh-7
Hepatitis C virus [11] = assay: Antiviral activity against Hepatitis C virus genotype 1b Con1 harboring NS3 V170A mutant infected in human HuH7.5 cells after 72 hrs by gaussia luciferase reporter assay relative to control; type: functional, Hepacivirus hominis, Huh-7
Hepatitis C virus [12] = assay: Antiviral activity against Hepatitis C virus genotype 1b Con1 harboring NS3 G282S mutant infected in human HuH7.5 cells after 72 hrs by gaussia luciferase reporter assay; type: functional, organism-based, Hepacivirus hominis; conditions: Con1, Huh-7, 72 h
Hepatitis C virus [13] = assay: Antiviral activity against Hepatitis C virus genotype 1b Con1 infected in human HuH7.5 cells after 72 hrs by gaussia luciferase reporter assay; type: functional, organism-based, Hepacivirus hominis; conditions: Con1, Huh-7, 72 h
Hepatitis C virus [14] = assay: Antiviral activity against Hepatitis C virus genotype 1b Con1 harboring NS5B I424V mutant infected in human HuH7.5 cells after 72 hrs by gaussia luciferase reporter assay relative to control; type: functional, Hepacivirus hominis, Huh-7
Hepatitis C virus [15] = assay: Antiviral activity against Hepatitis C virus genotype 1b Con1 harboring NS3 V158M mutant infected in human HuH7.5 cells after 72 hrs by gaussia luciferase reporter assay relative to control; type: functional, Hepacivirus hominis, Huh-7
Hepatitis C virus [16] = assay: Antiviral activity against Hepatitis C virus genotype 1b Con1 harboring NS5B C316Y mutant infected in human HuH7.5 cells after 72 hrs by gaussia luciferase reporter assay; type: functional, organism-based, Hepacivirus hominis; conditions: Con1, Huh-7, 72 h
Hepatitis C virus [17] = assay: Antiviral activity against Hepatitis C virus genotype 1b Con1 harboring NS3 K583T mutant infected in human HuH7.5 cells after 72 hrs by gaussia luciferase reporter assay; type: functional, organism-based, Hepacivirus hominis; conditions: Con1, Huh-7, 72 h
Hepatitis C virus [18] = assay: Antiviral activity against Hepatitis C virus genotype 1b Con1 harboring NS5B C445F mutant infected in human HuH7.5 cells after 72 hrs by gaussia luciferase reporter assay relative to control; type: functional, Hepacivirus hominis, Huh-7
Hepatitis C virus [19] = assay: Antiviral activity against Hepatitis C virus genotype 1b Con1 infected in human HuH7 cells assessed as GAPDH RNA or 18S rRNA level after 3 days selected with […] and 400 nM boceprevir by qRT-PCR analysis; type: functional, organism-based, Hepacivirus hominis; conditions: Con1, Huh-7, 72 h
Hepatitis C virus [20] = assay: Antiviral activity against Hepatitis C virus genotype 1b Con1 harboring NS3 E176G mutant infected in human HuH7.5 cells after 72 hrs by gaussia luciferase reporter assay; type: functional, organism-based, Hepacivirus hominis; conditions: Con1, Huh-7, 72 h
Hepatitis C virus [21] = assay: Antiviral activity against Hepatitis C virus genotype 1b Con1 harboring NS3 E176G mutant infected in human HuH7.5 cells after 72 hrs by gaussia luciferase reporter assay relative to control; type: functional, Hepacivirus hominis, Huh-7
Hepatitis C virus [22] = assay: Antiviral activity against Hepatitis C virus genotype 1b Con1 harboring V170A and C316Y mutations mutant infected in human HuH7.5 cells after 72 hrs by gaussia luciferase reporter assay; type: functional, organism-based, Hepacivirus hominis; conditions: Con1, Huh-7, 72 h
Hepatitis C virus [23] = assay: Antiviral activity against Hepatitis C virus genotype 1b Con1 harboring NS3 V158M mutant infected in human HuH7.5 cells after 72 hrs by gaussia luciferase reporter assay; type: functional, organism-based, Hepacivirus hominis; conditions: Con1, Huh-7, 72 h
Hepatitis C virus [24] = assay: Antiviral activity against Hepatitis C virus genotype 1b Con1 harboring NS3 V170A mutant infected in human HuH7.5 cells after 72 hrs by gaussia luciferase reporter assay; type: functional, organism-based, Hepacivirus hominis; conditions: Con1, Huh-7, 72 h
Hepatitis C virus [25] = assay: Antiviral activity against Hepatitis C virus genotype 1b Con1 harboring C316Y and C445F mutations mutant infected in human HuH7.5 cells after 72 hrs by gaussia luciferase reporter assay relative to control; type: functional, Hepacivirus hominis, Huh-7
Hepatitis C virus [26] = assay: Antiviral activity against Hepatitis C virus genotype 1b Con1 harboring NS3 G282S mutant infected in human HuH7.5 cells after 72 hrs by gaussia luciferase reporter assay relative to control; type: functional, Hepacivirus hominis, Huh-7

CC(=O)c1cc(F)c(Cl)cc1NCC(=O)Nc1ccccc1C(=O)O
EC50 (Hepatitis C virus [1]): 1.31 µM | Ratio IC50 (Hepatitis C virus [2]): >15 | EC50 (Hepatitis C virus [3]): > 20 µM

CC(=O)c1cc(F)c(Br)cc1NCC(=O)Nc1ccccc1C(=O)O
EC50 (Hepatitis C virus [1]): 0.499 µM | EC50 (Hepatitis C virus [2]; Hepatitis C virus, Con1, Huh-7, 72 h): > 0.03 µM | EC50 (Hepatitis C virus [3]): > 15 µM

CCC[C@]1(CC(=O)O)OCCc2c1[nH]c1c(C)ccc(C#N)c21
Ratio IC50 (Hepatitis C virus [2]): 2 | EC50 (Hepatitis C virus [3]): 7.84 µM

C[C@@]1(O)[C@H](O)[C@@H](CO)O[C@H]1n1ccc(N)nc1=O
EC50 (Hepatitis C virus [1]): 1.14 µM | Ratio IC50 (Hepatitis C virus [2]): 1 | EC50 (Hepatitis C virus [3]): 1.62 µM

CO[C@H]1/C=C\C=C(/C)C(=O)NC2=CC(=O)C(NCCN(C)C)=C(C[C@@H](C)C[C@H](OC)[C@H](O)[C@@H](C)/C=C(\C)[C@@H]1OC(N)=O)C2=O [ALVESPIMYCIN]
EC50 (Hepatitis C virus [1]): 0.0012 µM | Ratio IC50 (Hepatitis C virus [2]): 3 | EC50 (Hepatitis C virus [3]): 0.0031 µM

CC(C)(C)NC(=O)N[C@H](C(=O)N1C[C@H]2[C@@H]([C@H]1C(=O)NC(CC1CCC1)C(=O)C(N)=O)C2(C)C)C(C)(C)C (some centres undefined) [BOCEPREVIR]
EC50 (Hepatitis C virus [4]): 0.821 µM | Ratio IC50 (Hepatitis C virus [5]): 1 | Ratio IC50 (Hepatitis C virus [6]): 7 | EC50 (Hepatitis C virus [7]): 0.795 µM | EC50 (Hepatitis C virus [8]): 0.647 µM | Ratio IC50 (Hepatitis C virus [9]): 8 | Ratio IC50 (Hepatitis C virus [10]): 1 | Ratio IC50 (Hepatitis C virus [11]): 5 | EC50 (Hepatitis C virus [1]): 0.165 µM | EC50 (Hepatitis C virus [12]): 1.94 µM | EC50 (Hepatitis C virus [13]): 0.608 µM | Ratio IC50 (Hepatitis C virus [14]): 1 | Ratio IC50 (Hepatitis C virus [15]): 1 | Ratio IC50 (Hepatitis C virus [2]): 10 | EC50 (Hepatitis C virus [16]): 0.781 µM | EC50 (Hepatitis C virus [17]): 0.738 µM | Ratio IC50 (Hepatitis C virus [18]): 1 | EC50 (Hepatitis C virus [19]): 1.33 µM | EC50 (Hepatitis C virus [20]): 2.15 µM | Ratio IC50 (Hepatitis C virus [21]): 4 | EC50 (Hepatitis C virus [22]): 4.36 µM | EC50 (Hepatitis C virus [23]): 0.377 µM | EC50 (Hepatitis C virus [24]): 3.17 µM | Ratio IC50 (Hepatitis C virus [25]): 1 | Ratio IC50 (Hepatitis C virus [26]): 3 | EC50 (Hepatitis C virus [3]): 1.58 µM

COC1=C2C[C@@H](C)C[C@H](OC)[C@H](O)[C@@H](C)/C=C(\C)[C@H](OC(N)=O)[C@@H](OC)/C=C\C=C(/C)C(=O)NC(=CC1=O)C2=O [GELDANAMYCIN]
EC50 (Hepatitis C virus [1]): 0.00025 µM | Ratio IC50 (Hepatitis C virus [2]): 5 | EC50 (Hepatitis C virus [3]): 0.0012 µM

CNC(=O)c1c(-c2ccc(F)cc2)oc2cc(N(CCO)S(C)(=O)=O)c(C3CC3)cc12 [NESBUVIR]
EC50 (Hepatitis C virus [4]): 25.7 µM | Ratio IC50 (Hepatitis C virus [5]): 1 | Ratio IC50 (Hepatitis C virus [6]): 95 | EC50 (Hepatitis C virus [7]): 0.114 µM | EC50 (Hepatitis C virus [8]): 0.013 µM | Ratio IC50 (Hepatitis C virus [9]): 1025 | Ratio IC50 (Hepatitis C virus [10]): 138 | Ratio IC50 (Hepatitis C virus [11]): 1 | EC50 (Hepatitis C virus [1]): 0.0024 µM | EC50 (Hepatitis C virus [12]): 0.022 µM | EC50 (Hepatitis C virus [13]): 0.014 µM | Ratio IC50 (Hepatitis C virus [14]): 1 | Ratio IC50 (Hepatitis C virus [15]): 1 | Ratio IC50 (Hepatitis C virus [2]): 1403 | EC50 (Hepatitis C virus [16]): 1.94 µM | EC50 (Hepatitis C virus [17]): 0.015 µM | Ratio IC50 (Hepatitis C virus [18]): 8 | EC50 (Hepatitis C virus [19]): 2.46 µM | EC50 (Hepatitis C virus [20]): 0.038 µM | Ratio IC50 (Hepatitis C virus [21]): 3 | EC50 (Hepatitis C virus [22]): 1.33 µM | EC50 (Hepatitis C virus [23]): 0.009 µM | EC50 (Hepatitis C virus [24]): 0.013 µM | Ratio IC50 (Hepatitis C virus [25]): 1834 | Ratio IC50 (Hepatitis C virus [26]): 2 | EC50 (Hepatitis C virus [3]): 3.37 µM
